Reference: patent US10245275B2 (ViiV HEALTHCARE UK (NO.4) LIMITED, priority 2014, dated 2019)
Like-named read-outs stand apart in the source and are kept apart here.

Experiments:
[1] = system: WT (wild-type HIV virus; recombinant NL4-3 virus); assay: microbe, parasite or virus in culture; type: cell-based, HIV-1
In short: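 MT-2 cells infected 4-5 days with NL4-3 carrying Renilla luciferase in place of part of nef (Gag P373S), virus made by 293T transfection, with serial inhibitor dilutions. Antiviral activity read as luciferase activity by a modified dual-luciferase read-out.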

[2] = system: HIV-1 NL4-3 gag A364V virus; assay: microbe, parasite or virus in culture; type: cell-based
In short: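 Recombinant NL4-3 reporter virus with Renilla luciferase replacing part of nef, made by transfection of 293T cells. MT-2 cells infected for 4-5 days with serial inhibitor dilutions; antiviral activity quantified by luciferase activity.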

[3] = system: HIV-1 92UG029 (clade A virus); assay: HIV cell culture assay, 92UG029 Gag/Pr recombinant virus in MT-2 cells; type: cell-based
Description: MT-2 cells and 293T cells were obtained from the NIH AIDS Research and Reference Reagent Program. MT-2 cells were propagated in RPMI 1640 media supplemented with 10% heat-inactivated fetal bovine serum, […]. The 293T cells were propagated in DMEM media supplemented with 10% heat-inactivated fetal bovine serum (FBS), 100 units/mL penicillin G and 100 μg/mL streptomycin. The proviral DNA clone of NL4-3 was obtained from the NIH AIDS Research and Reference Reagent Program. A recombinant NL4-3 virus, in which a section of the nef gene from NL4-3 was replaced with the Renilla luciferase gene, was used as a reference virus. In addition, residue Gag P373 was converted to P373S. Briefly, the recombinant virus was prepared by transfection of the altered proviral clone of NL4-3. Transfections were performed in 293T cells using LipofectAMINE PLUS from Invitrogen (Carlsbad, Calif.), according to manufacturer's instruction. The virus was titered in MT-2 cells using luciferase enzyme activity as a marker. Luciferase was quantitated using the Dual Luciferase kit from Promega (Madison, Wis.), with modifications to the manufacturer's protocol. The diluted Passive Lysis solution was pre-mixed with the re-suspended Luciferase Assay Reagent and the re-suspended Stop & Glo Substrate (2:1:1 ratio). Fifty (50) μL of the mixture was added to each aspirated well on assay plates and luciferase activity was measured immediately on a Wallac TriLux (Perkin-Elmer). Antiviral activities of inhibitors toward the recombinant virus were quantified by measuring luciferase activity in cells infected for 4-5 days with NLRluc recombinants in the presence serial dilutions of the inhibitor.
Determination of EC50 for WT, EC50 for A364V, and EC50 for 92UG029 viruses:
HIV-1 92UG029 was obtained from the NIH (Catalog Number: 1650). This is a subtype A Gag and subtype A Env, X4 (SI) virus from Uganda. Reference: WHO Network for HIV Isolation and Characterization. AIDS Res Hum Retroviruses 10:1359, 1994. The Gag/Pr region from 92UG029 was used to replace that in an HIV-1 NL4-3 virus expressing Renilla luciferase gene.
Both recombinant viruses were used as described above in the HIV cell culture assay for the NL4-3 virus.

[4] = Rat PO pharmacokinetic study; type: in vivo; details: male, Sprague-Dawley, plasma, oral dose of 5 mg/kg, PEG-400/ethanol (90/10) solution, fasted rats
Description: Rat Pharmacokinetic Studies:
For the PO pharmacokinetic studies of the compounds in rats, the compounds were each dissolved in PEG-400/ethanol (90/10) as a solution.
Rat. Male Sprague-Dawley rats (300-350 g, Hilltop Lab Animals, Inc., Scottsdale, Pa.) with cannulas implanted in the jugular vein were used. The rats were fasted overnight in the PO pharmacokinetic studies. Blood samples of 0.3 mL were collected from the jugular vein in EDTA-containing microtainer tubes (Becton Dickinson, Franklin Lakes, N.J.), and centrifuged to separate plasma.
In the PO study of the tested compounds, the rats (n=3) received an oral dose of 5 mg/kg of the indicated compound. Serial blood samples were collected before dosing and 15, 30, 45, 60, 120, 240, 360, 480, and 1440 min after dosing.
Quantitation of Compounds in Plasma. Aliquots of plasma samples from rat, studies were prepared for analysis by precipitating plasma proteins with two volumes of acetonitrile containing an internal standard of a similar compound. The resulting supernates were separated from the precipitated proteins by centrifugation for 10 minutes and transferred to autosampler vials. Samples were either prepared manually, or with the use of the Tomtec automated liquid handler. An aliquot of 5 μL was injected for analysis.
The HPLC system consisted of two Shimadzu LC10AD pumps (Columbia, Md.), a Shimadzu SIL-HTC autosampler (Columbia, Md.), and a Hewlett Packard Series 1100 column compartment (Palo Alto, Calif.). The column was a YMC Pro C18 (2.0×50 mm, 3 μm particles, Waters Co., Milford, Mass.), maintained at 60° C. and a flow rate of 0.3 ml/min. The mobile phase consisted of 10 mM ammonium formate and 0.1% formic acid in water (A) and 100% 10 mM ammonium formate and 0.1% formic acid in methanol (B). The initial mobile phase composition was 95% A. After sample injection, the mobile phase was changed to 15% A/85% B over 2 minutes and held at that composition for an additional 1 minute. The mobile phase was then returned to initial conditions and the column re-equilibrated for 1 minute. Total analysis time was 4 minutes.
The HPLC was interfaced to a Micromass Quattro LC. Ultra high purity nitrogen was used as the nebulizing and desolvation gas at flow rates of 100 L/hr for nebulization and 1100 L/hr for desolvation. The desolvation temperature was 300° C. and the source temperature was 150° C. Data acquisition utilized selected reaction monitoring (SRM). Ions representing the (M+H)^+ species for the compound and the internal standard were selected in MS1 and collisionally dissociated with argon at a pressure of 2×10^−3 torr to form specific product ions which were subsequently monitored by MS2.

[5] = Human immunodeficiency virus 1, NL43, MT2, read-out: EC50 WT (μM), Table 2, 3× higher viral input
[6] = Human immunodeficiency virus 1, NL43, MT2, read-out: WT (EC50, uM), Table 1 regular screen, MT-2 cells, luciferase readout
[7] = Human immunodeficiency virus 1, NL43, MT2, read-out: A364V (EC50, uM), Table 1 regular screen, MT-2 cells, luciferase readout
[8] = Human immunodeficiency virus 1, NL43, MT2, read-out: EC50 A364V (μM), Table 2, 3× higher viral input
[9] = Human immunodeficiency virus 1, MT2, read-out: 92UG029A Clade T332S/V362I/V370A (EC50, uM)
[10] = Human immunodeficiency virus 1, MT2, read-out: EC50 92UG029 (μM)

| SMILES | EC50 [1, 5] [µM] | EC50 [1, 6] [µM] | EC50 [2, 7] [µM] | EC50 [2, 8] [µM] | EC50 [3, 9] [µM] | EC50 [3, 10] [µM] | AUC [4] [µM·h] |
| --- | --- | --- | --- | --- | --- | --- | --- |
| C=C(C)[C@@H]1CC[C@]2(NCCN3CCS(=O)(=O)CC3)CC[C@]3(C)[C@H](CC[C@@H]4[C@@]5(C)CC=C(C6=CC[C@](CF)(C(=O)O)CC6)C(C)(C)[C@@H]5CC[C@]43C)[C@@H]12 [Example 2a, (S)-4-((1R,3aS,5aR,5bR,7aR,11aS,11bR,13aR,13bR)-3a-((2-(1,1-dioxidothiomorpholino)ethyl)amino)-5a,5b, 8,8,11a-pentamethyl-1-(prop-1-en-2-yl)-2,3,3a,4,5,5a,5b,6,7,7a,8,11,11a,11b,12,13,13a,13b-octadecahydro-1H-cyclopenta[a]chrysen-9-yl)-1-(fluoromethyl)cyclohex-3-enecarboxylic acid] | 0.002 | 0.00198 | 0.16 | 0.78 | 0.00706 | 0.02 | 7.03 |
| C=C(C)[C@@H]1CC[C@]2(NCCN3CCS(=O)(=O)CC3)CC[C@]3(C)[C@H](CC[C@@H]4[C@@]5(C)CC=C(C6=CC[C@@](CF)(C(=O)O)CC6)C(C)(C)[C@@H]5CC[C@]43C)[C@@H]12 [Example 2b, (R)-4-((1R,3aS,5aR,5bR,7aR,11aS,11bR,13aR,13bR)-3a-((2-(1,1-dioxidothiomorpholino)ethyl)amino)-5a,5b,8,8,11a-pentamethyl-1-(prop-1-en-2-yl)-2,3,3a,4,5,5a,5b,6,7,7a,8,11,11a,11b,12,13,13a,13b-octadecahydro-1H-cyclopenta[a]chrysen-9-yl)-1-(fluoromethyl)cyclohex-3-enecarboxylic acid] | 0.003 | 0.00148 | 0.201 | 0.17 | 0.00618 | 0.001 | 7.39 |
| C=C(C)[C@@H]1CC[C@]2(NCCN3CCS(=O)(=O)CC3)CC[C@]3(C)[C@H](CC[C@@H]4[C@@]5(C)CC=C(C6=CCC(CF)(C(=O)O)CC6)C(C)(C)[C@@H]5CC[C@]43C)[C@@H]12 (mixture of isomers) [Example 2, 4-((1R,3aS,5aR,5bR,7aR,11aS,11bR,13aR,13bR)-3a-((2-(1,1-dioxidothiomorpholino)ethyl)amino)-5a,5b,8,8,11a-pentamethyl-1-(prop-1-en-2-yl)-2,3,3a,4,5,5a,5b,6,7,7a,8,11,11a,11b,12,13,13a,13b-octadecahydro-1H-cyclopenta[a]chrysen-9-yl)-1-(fluoromethyl)cyclohex-3-enecarboxylic acid] | 0.002 | 0.00129 | 0.0847 | 0.21 | 0.00461 | 0.005 | 7.93 |
